For 19 compounds, IC50 results are on record in ChEMBL document CHEMBL5236586, “Novel ginsenoside derivatives induce apoptosis in HepG-2 cells via the MDM2-p53 signaling pathway” (Bioorg Med Chem Lett, 2022).

Bounds are passed on as bounds.

Broadly, the IC50 is the midpoint of a concentration-inhibition curve.

Series [1] deals with A549. As to the kind of experiment: Antiproliferative activity against human A549 cells assessed as inhibition of cell proliferation by MTT assay. Format: functional, cell-based. Background: Formazan colour is commonly taken as a measure of viable cells.
The test system of series [2] is PC-3. Kind of series: Antiproliferative activity against human PC-3 cells assessed as inhibition of cell proliferation by MTT assay. It counts as functional, cell-based.
The test system of series [3] is HepG2. As to the kind of experiment: Antiproliferative activity against human HepG2 cells assessed as inhibition of cell proliferation by MTT assay. It counts as functional, cell-based.
Series [4] can be described thus: Cytotoxicity against mouse L929 cells assessed as inhibition of cell proliferation by MTT assay. It counts as toxicity, cell-based.

Consider `CC1(C)CCC[C@](C)([C@@H]2CC[C@]3(C)[C@@H]2[C@H](O)C[C@H]2[C@@]4(C)CC[C@H](OC(=O)CSc5nc6ccc([N+](=O)[O-])cc6c(=O)[nH]5)C(C)(C)[C@@H]4CC[C@]23C)O1`, for which the IC50 in series [1] is more than 100 µM; in series [2] it was more than 100 µM; in series [3], 59.8 µM; in series [4] it was more than 100 µM.

As for `CC1(C)CCC[C@](C)([C@@H]2CC[C@]3(C)[C@@H]2[C@H](O)C[C@H]2[C@@]4(C)CC[C@H](OC(=O)CSc5nc(-c6cccc(O)c6)c(C#N)c(=O)[nH]5)C(C)(C)[C@@H]4CC[C@]23C)O1`, the IC50 in series [1] is 14.3 µM; in series [2] it was 20.8 µM; in series [3], 9.35 µM; in series [4] it was 78.5 µM.

`CC1(C)CCC[C@](C)([C@@H]2CC[C@]3(C)[C@@H]2[C@H](O)C[C@@H]2[C@@]4(C)CC[C@H](OC(=O)CSc5nc(-c6ccccc6)c(C#N)c(=O)[nH]5)C(C)(C)[C@@H]4CC[C@]23C)O1`: the IC50 in series [1] was determined as 8.9 µM; in series [2], 9.82 µM; in series [3], 7.6 µM; in series [4] it was 74.7 µM.

Take `Cc1ccc2nc(SCC(=O)O[C@H]3CC[C@@]4(C)[C@@H](CC[C@]5(C)[C@H]4C[C@@H](O)[C@@H]4[C@H]([C@@]6(C)CCCC(C)(C)O6)CC[C@]45C)C3(C)C)[nH]c(=O)c2c1`: the IC50 in series [1], in series [2], in series [3] and in series [4] was more than 100 µM each time.

For the compound `CC1(C)CCC[C@](C)([C@@H]2CC[C@]3(C)[C@@H]2[C@H](O)C[C@H]2[C@@]4(C)CC[C@H](OC(=O)CSc5nc6ccc(Br)cc6c(=O)[nH]5)C(C)(C)[C@@H]4CC[C@]23C)O1`, the half-maximal inhibitory concentration (IC50) in series [1], in series [2], in series [3] and in series [4] was more than 100 µM in each case.

With `CC1(C)CCC[C@](C)([C@@H]2CC[C@]3(C)[C@@H]2[C@H](O)CC2[C@@]4(C)CC[C@H](OC(=O)CSc5nc(-c6ccc(Cl)cc6)c(C#N)c(=O)[nH]5)C(C)(C)[C@@H]4CC[C@]23C)O1` (stereo partly specified), the IC50 in series [1] was 6.79 µM; in series [2], 7.42 µM; in series [3], 6.39 µM; in series [4] it was 76.8 µM.

`CC1(C)CCC[C@](C)([C@@H]2CC[C@]3(C)[C@@H]2[C@H](O)CC2[C@@]4(C)CC[C@H](OC(=O)CSc5nc(-c6cccc(F)c6)c(C#N)c(=O)[nH]5)C(C)(C)[C@@H]4CC[C@]23C)O1` (stereo partly specified): the half-maximal inhibitory concentration (IC50) in series [1] worked out at 6.98 µM; in series [2] it was 8.19 µM; in series [3], 7.56 µM; in series [4], 76 µM.

Turning to `COc1ccc(-c2nc(SCC(=O)O[C@H]3CC[C@@]4(C)[C@@H](CC[C@]5(C)[C@H]4C[C@@H](O)[C@@H]4C([C@@]6(C)CCCC(C)(C)O6)CC[C@]45C)C3(C)C)[nH]c(=O)c2C#N)cc1` (stereo partly specified), the IC50 was 6.88 µM in series [1], 9.45 µM in series [2], 5.09 µM in series [3] and 76.3 µM in series [4].

For `CC1(C)CCC[C@](C)([C@@H]2CC[C@]3(C)[C@@H]2[C@H](O)C[C@H]2[C@@]4(C)CC[C@H](O)C(C)(C)[C@@H]4CC[C@]23C)O1`, the IC50 in series [1] was 58.4 µM; in series [2], 68.3 µM; in series [3], 59.2 µM; in series [4], more than 100 µM.

As for `CC1(C)CCC[C@](C)(C2CC[C@]3(C)[C@@H]2[C@H](O)C[C@H]2[C@@]4(C)CC[C@H](OC(=O)CSc5nc(-c6c[nH]c7ccccc67)c(C#N)c(=O)[nH]5)C(C)(C)[C@@H]4CC[C@]23C)O1` (stereo partly specified), the IC50 came out at 7.17 µM in series [1], 10.8 µM in series [2], 5.21 µM in series [3] and 76.1 µM in series [4].

In the case of `CC1(C)CCC[C@](C)([C@@H]2CC[C@]3(C)[C@@H]2[C@H](O)C[C@H]2[C@@]4(C)CC[C@H](OC(=O)CSc5nc6cc(Cl)ccc6c(=O)[nH]5)C(C)(C)[C@@H]4CC[C@]23C)O1`, the concentration for half-maximal inhibition (IC50) in series [1], in series [2], in series [3] and in series [4] was more than 100 µM in each case.

As to `CC1(C)CCC[C@](C)([C@@H]2CC[C@]3(C)[C@@H]2[C@H](O)CC2[C@@]4(C)CC[C@H](OC(=O)CSc5nc(-c6ccc(Br)cc6)c(C#N)c(=O)[nH]5)C(C)(C)[C@@H]4CC[C@]23C)O1` (stereo partly specified), the IC50 turned out to be 7.51 µM in series [1], 9.72 µM in series [2], 5.91 µM in series [3] and 77 µM in series [4].

For the compound `COc1cc(-c2nc(SCC(=O)O[C@H]3CC[C@@]4(C)[C@@H](CC[C@]5(C)[C@H]4C[C@@H](O)[C@@H]4C([C@@]6(C)CCCC(C)(C)O6)CC[C@]45C)C3(C)C)[nH]c(=O)c2C#N)cc(OC)c1OC` (stereo partly specified), the IC50 in series [1] came out at 7.6 µM; in series [2] it was 13.3 µM; in series [3] it was 7.71 µM; in series [4] it was 77.7 µM.

In the case of `CC1(C)CCC[C@](C)([C@@H]2CC[C@]3(C)[C@@H]2[C@H](O)C[C@H]2[C@@]4(C)CC[C@H](OC(=O)CSc5nc6ccc(Cl)cc6c(=O)[nH]5)C(C)(C)[C@@H]4CC[C@]23C)O1`, the IC50 in series [1] is more than 100 µM; in series [2], more than 100 µM; in series [3], 80.5 µM; in series [4], more than 100 µM.

`Cc1cccc(-c2nc(SCC(=O)O[C@H]3CC[C@@]4(C)[C@@H](CC[C@]5(C)[C@H]4C[C@@H](O)[C@@H]4[C@H]([C@@]6(C)CCCC(C)(C)O6)CC[C@]45C)C3(C)C)[nH]c(=O)c2C#N)c1`: the IC50 worked out at 13.6 µM in series [1], 17 µM in series [2], 14.1 µM in series [3] and 77.1 µM in series [4].

Turning to `CC1(C)CCC[C@](C)([C@@H]2CC[C@]3(C)[C@@H]2[C@H](O)CC2[C@@]4(C)CC[C@H](OC(=O)CSc5nc(-c6cccc(Br)c6)c(C#N)c(=O)[nH]5)C(C)(C)[C@@H]4CC[C@]23C)O1` (stereo partly specified), the IC50 in series [1] is 6.69 µM; in series [2], 6.53 µM; in series [3], 5.95 µM; in series [4], 70.3 µM.

For the compound `COc1cccc(-c2nc(SCC(=O)O[C@H]3CC[C@]4(C)[C@H]5C[C@@H](O)[C@@H]6[C@H]([C@@]7(C)CCCC(C)(C)O7)CC[C@@]6(C)[C@]5(C)CC[C@H]4C3(C)C)[nH]c(=O)c2C#N)c1`, the IC50 in series [1] stood at 6.84 µM; in series [2], 8.98 µM; in series [3], 6.85 µM; in series [4], 64.5 µM.

In the case of `CC1(C)CCC[C@](C)([C@@H]2CC[C@]3(C)[C@@H]2[C@H](O)C[C@H]2[C@@]4(C)CC[C@H](OC(=O)CSc5nc6ccc(F)cc6c(=O)[nH]5)C(C)(C)[C@@H]4CC[C@]23C)O1`, the IC50 in series [1] is 56.6 µM; in series [2], more than 100 µM; in series [3], 70.5 µM; in series [4] it was more than 100 µM.

As to `CC1(C)CCC[C@](C)([C@@H]2CC[C@]3(C)[C@@H]2[C@H](O)C[C@H]2[C@@]4(C)CC[C@H](OC(=O)CSc5nc6c(Cl)cccc6c(=O)[nH]5)C(C)(C)[C@@H]4CC[C@]23C)O1`, the concentration for half-maximal inhibition (IC50) is more than 100 µM in series [1], 62.3 µM in series [2], more than 100 µM in series [3] and more than 100 µM in series [4].
